Test results as given in patent US20100063026A1, “ANTIBACTERIAL QUINOLINE DERIVATIVES” (priority 2007, published 2010).
≈ marks a conversion by molar mass, not a printed value.

What was measured:
[1] = system: Streptococcus pneumoniae (ATCC6305); assay: Microtitre plate IC90 determination against non-mycobacterial strains: S. pneumoniae; assay type: cell-based; conditions: 90% inhibitory concentration for bacterial growth, 37° C., resazurin fluorescence; for IC90 SPN 1 6305: 24 hours; for IC90: Streptococcus pneumoniae, ATCC6305, 24 h, read-out: IC90 SPN 1 6305
Experimental: (§1) The bacteria used in this study were grown overnight in flasks containing 100 ml Mueller-Hinton Broth (Becton Dickinson-cat. no. 275730) in sterile de-ionized water, with shaking, at 37° C. Stocks (0.5 ml/tube) were stored at -70° C. until use. Bacteria titrations were performed in microtiter plates to detect the TCID50, in which the TCID50 represents the dilution that gives rise to bacterial growth in 50% of inoculated cultures. In general, an inoculum level of approximately 100 TCID50 was used for susceptibility testing. […] Therefore resazurin (0.6 mg/ml) was added in a volume of 20 μl to all wells 3 hours after inoculation, and the plates were re-incubated overnight. A change in colour from blue to pink indicated the growth of bacteria.

[2] = system: Staphylococcus aureus (ATCC29213); assay: Microtitre plate IC90 determination against non-mycobacterial strains: S. aureus; assay type: cell-based; conditions: 90% inhibitory concentration for bacterial growth, 37° C., resazurin fluorescence; for IC90 STA 1 B29213: 24 hours; for IC90: Staphylococcus aureus, ATCC29213, 24 h, read-out: IC90 STA 1 B29213
Experimental: as §1

[3] = system: Mycobacterium tuberculosis (strain H37RV); assay: In-vitro method for testing compounds against M. tuberculosis; assay type: cell-based; conditions: 90% inhibitory concentration for bacterial growth, 7 days, 37° C., Resazurin fluorescence; for IC90: Mycobacterium tuberculosis, H37RV, 168 h, read-out: IC90 MTB 1 H37RV
M. smegmatis ATCC607 = assay: In-vitro anti-bacterial activity against strain M. smegmatis ATCC607; conditions: for IC90 MSM 1 ATCC607: 90% inhibitory concentration for bacterial growth, 48 hours, 37° C., Alamar Blue fluorescence; for IC90: Mycolicibacterium smegmatis, ATCC607, 48 h, read-out: IC90 MSM 1 ATCC607, 90% inhibitory concentration for bacterial growth, 37° C., Alamar Blue fluorescence
Experimental: Flat-bottom, sterile 96-well plastic microtiter plates were filled with 180 μl of sterile deionized water, supplemented with 0.25% BSA. Subsequently, stock solutions (7.8× final test concentration) of compounds were added in 45 μl volumes to a series of duplicate wells in column 2 so as to allow evaluation of their effects on bacterial growth. Serial five-fold dilutions (45 μl in 180 μl) were made directly in the microtiter plates from column 2 to 11 using a customised robot system (Zymark Corp., Hopkinton, Mass.). Pipette tips were changed after every 3 dilutions to minimize pipetting errors with high hydrophobic compounds. Untreated control samples with (column 1) and without (column 12) inoculum were included in each microtiter plate. Approximately 250 CFU per well of bacteria inoculum, in a volume of 100 μl in 2.8× Mueller-Hinton broth medium, was added to the rows A to H, except column 12. The same volume of broth medium without inoculum was added to column 12 in row A to H. The cultures were incubated at 37° C. for 48 hours in a humidified 5% CO2 atmosphere (incubator with open air valve and continuous ventilation). At the end of incubation, two days after inoculation, the bacterial growth was quantitated fluorometrically. Therefore Alamar Blue (10×) was added to all wells in a volume of 20 μl and plates were incubated for another 2 hours at 50° C.
The fluorescence was read in a computer-controlled fluorometer (Cytofluor, Biosearch) at an excitation wavelength of 530 nm and an emission wavelength of 590 nm (gain 30). The percentage growth inhibition achieved by the compounds was calculated according to standard methods and expressed as IC90 (μg/ml) which defines the 90% inhibitory concentration for bacterial growth.

| SMILES | IC90 SPN 1 6305 [1] [µg/mL] | IC90 STA 1 B29213 [2] [µg/mL] | IC90 [3] [µg/mL] | IC90 MSM 1 ATCC607 (M. smegmatis ATCC607) [µg/mL] | IC90 MTB 1 H37RV [3] [µg/mL] | melting point [°C] | IC90 [1] [µg/mL] | IC90 [2] [µg/mL] | IC90 (M. smegmatis ATCC607) [µg/mL] |
| --- | --- | --- | --- | --- | --- | --- | --- | --- | --- |
| COc1nc2ccc(Br)cc2cc1C(c1ccccc1)C(O)(CCCCN1CC2CC1CN2Cc1ccccc1)c1ccc2ccccc2c1 (centres unmarked) [Compound 23] | 0.2 (≈ 0.275 µM) | 2.3 (≈ 3.16 µM) | 57.7 (≈ 79.4 µM) | 0.5 (≈ 0.688 µM) |  |  |  |  |  |
| COc1nc2ccc(Br)cc2cc1C(c1ccccc1)C(O)(CCCCN(C)C(=N)N)c1ccccc1 (single isomer, unassigned) [Compound 2] | 2.2 (≈ 3.92 µM) | 1.8 (≈ 3.21 µM) |  | 1.8 (≈ 3.21 µM) | 2.5 (≈ 4.45 µM) |  |  |  |  |
| COc1nc2ccc(Br)cc2cc1C(c1ccccc1)C(O)(CCCCN1CC2CC1CN2CCc1ccccc1)c1ccc2ccccc2c1 (single isomer, unassigned) [Compound 25] | 0.5 (≈ 0.675 µM) | 2.3 (≈ 3.1 µM) |  | 1.7 (≈ 2.29 µM) |  | 137 |  |  |  |
| COc1nc2ccc(Br)cc2cc1C(c1ccccc1)C(O)(CCCCN1CCCNCC1)c1ccc2ccccc2c1 (single isomer, unassigned) [Compound 33] |  |  |  |  |  | 119 | 0.5 (≈ 0.783 µM) | 2 (≈ 3.13 µM) | 0.4 (≈ 0.626 µM) |
| COc1nc2ccc(Br)cc2cc1C(c1ccccc1)C(O)(CCCCN1CCC(N2CCCCC2)CC1)c1ccc2ccccc2c1 (single isomer, unassigned) [Compound 29] | 0.8 (≈ 1.13 µM) | 5.0 (≈ 7.07 µM) |  | 2.2 (≈ 3.11 µM) |  | 177 |  |  |  |
| COc1nc2ccc(Br)cc2cc1C(c1ccccc1)C(O)(CCCCN(C)C(=N)N)c1ccccc1 (single isomer, unassigned) [Compound 1] |  |  | 4 (≈ 7.12 µM) |  |  |  | 2.2 (≈ 3.92 µM) | 2 (≈ 3.56 µM) | 1.8 (≈ 3.21 µM) |
| CN1CCCN(CCCCC(O)(c2ccc3ccccc3c2)C(c2ccccc2)c2cc3cc(Br)ccc3[nH]c2=O)CC1 (single isomer, unassigned) [Compound 50] |  | 10.1 (≈ 15.8 µM) |  | 2.3 (≈ 3.6 µM) |  | 210 | 4.5 (≈ 7.05 µM) |  |  |
| COc1nc2ccc(Br)cc2cc1C(c1ccccc1)C(O)(CCCCN1CCC(N2CCCCC2)CC1)CCc1ccccc1 (single isomer, unassigned) [Compound 11] | 10.9 (≈ 15.9 µM) | 10.9 (≈ 15.9 µM) |  | 12.2 (≈ 17.8 µM) |  | 164 |  |  |  |
| COc1nc2ccc(Br)cc2cc1C(c1ccc(Cl)cc1)C(O)(CCCCN1CC2CC1CN2Cc1ccccc1)c1ccc2ccccc2c1 (single isomer, unassigned) [Compound 36] |  | 53.9 (≈ 70.8 µM) |  |  |  |  | 0.9 (≈ 1.18 µM) |  | 2.7 (≈ 3.55 µM) |
| COc1nc2ccccc2cc1C(c1ccccc1)C(O)(CCCCN1CC2CC1CN2)c1ccc2ccccc2c1 (single isomer, unassigned) [Compound 19] | 2.2 (≈ 3.94 µM) | 1.8 (≈ 3.23 µM) |  | 1.6 (≈ 2.87 µM) |  |  |  |  |  |
| COc1nc2ccc(Br)cc2cc1C(c1ccccc1)C(O)(CCCCN1CCCN(C)CC1)c1ccc2ccccc2c1 (centres unmarked) [Compound 35a] | 0.4 (≈ 0.613 µM) | 2.1 (≈ 3.22 µM) |  | 0.9 (≈ 1.38 µM) |  |  |  |  |  |
